Measurements reported in patent US6362215B1 (priority 1998, dated 2002).

Legend:
[1] = test system: laying hens; assay: Other tests on shell quality of older hens supplied with calcium L-pidolate; type: in vivo; settings: between the 60th week and the 72nd week
Excerpt: The decrease in quality of the shell increases between the 55th and 65th week. The hens are generally sacrificed at 68 to 70 weeks. […] As a result, the duration of exploitation of the hen can thus be prolonged so as to improve the profit of raising by reducing the hen/egg cost.

[2] = test system: laying hens; assay: Henhouse test on laying hens, calcium L-pidolate in feedstuff; eggs examined by candling
Excerpt: The downgraded percentage corresponds to the percentage of eggs with cracked shells, which shell having been carefully examined by candling so as to detect any rupture of the shell (cracks, holes, etc.). The percentage of uncracked egg shells was computed from eggs on which no shell rupture was observed by candling.

## calcium L-pidolate
[1]
  decrease in quality of the shell: can be stabilized
[2]; after stopping treatment
  persistence of improvements in egg color (pure white eggs or chalky appearance) after stopping treatment: persisted eight to ten days after stopping treatment
[2]; day after the day of administration in feedstuff, 19,300 hens, candling
  percentage of downgraded eggs (eggs with cracked shells): decrease of the percentage of downgraded eggs
[2]; day after the end of treatment
  effect on quality, in particular mechanical strength of the egg shells, after end of treatment: decreased and disappeared completely
[2]; tests of FIG. 1, winter, October-November
  percentage of downgraded eggs over the test period: maintaining the percentage of downgraded eggs at a substantially constant value
